According to patent publication US20200206233A1 (INTEGRAL BIOSCIENCES PRIVATE LIMITED, priority 2018, published 2020):
pIC50: −log10 of the molar value.

How the values were obtained:
IDH1 mutant (R132H) = target: T1, IDH1 mutant (R132H) (Homo sapiens, UniProt O75874, R132H); test: Mutant IDH1-R132H Fluorescence Assay (Resazurin based); format: biochemical; details: 10 nM IDH1 R132H, 4 mM α-ketoglutarate, NADPH, 1.5 h at room temperature
T1 construct: purchased BPS Bioscience 71099-2
Procedure, shortened: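 Recombinant IDH1 R132H (10 nM) was run with α-ketoglutarate (4 mM) and NADPH ([…]) for 1.5 h at room temperature in Tris pH buffer with MgCl2, BSA and mercaptoethanol. Remaining NADPH was detected via diaphorase/resazurin fluorescence (ex 540/em 590 nm). IC50 came from a 4-parameter logistic fit.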

[1] = target: T2, mutant IDH1 (R132C) HT1080 cells (Homo sapiens, UniProt O75874, R132C); test: Cellular 2-HG assay using mutant IDH1 (R132C) HT1080 cells; format: cell-based; details: 48 h treatment, 0.003 to 3 μM, 2-HG in cell culture media
T2 construct: host or cells: HT1080
Experimental: HT1080 (ATCC® CCL-121™) cells were plated in a 12 well plate (Nunc™ Cell-Culture Treated Multidish; Cat #150628) at a cell density of 5×10^4 cells/well. Cells were then treated with various concentrations of test/reference compounds (ranging from 0.003 to 3 μM) or vehicle for 48 h under cell culture conditions (in CO2 incubator, 5% CO2, 37° C.). Metabolites were extracted from cell culture media by precipitation method and IC50 values of compounds were determined by Resazurin based Fluorescence assay. Assay buffer contained 100 mM HEPES pH 8.0, 100 μM NAD^+ (Sigma; Cat # N1630-100MG), […] HGDH, 5 μM resazurin (Cat #62758-13-8, Sigma) and 0.01 U/ml diaphorase (Cat # D2197-300UN, Sigma). Total assay volume was 100 μl. 75 μl of assay buffer was added to 25 μl sample volume (supernatant) and incubated at RT in the dark for 30 min in black 96-well plates (Thermo Scientific). Fluorometric detection was done using a Synergy Neo Plate reader (BioTek, Winooski) at single excitation of 540 nm and emission at 590 nm respectively).
(§1) The % activity of test samples was calculated as (Sample−Min)×100/(Max−Min). [Max: DMSO control, complete reaction with enzyme with DMSO and Min: No enzyme with DMSO]. Percent inhibition (100−% activity) was fitted to the “four-parameter logistic model” in XLfit for determination of IC50 values.

IDH1-WT = target: T3, IDH1-WT (Homo sapiens, UniProt O75874); test: IDH1-WT Fluorescence Assay (Resazurin based); format: biochemical; details: 1 nM IDH1-WT, 200 μM isocitrate, 15 μM NADP+, 30 min at room temperature
T3 construct: purchased BPS Bioscience 71075-2
Experimental: IC50 values of compounds against IDH1-WT was determined by Resazurin based Fluorescence assay. Assays were performed in Buffer (50 mM Tris HCl, 10 mM MgCl2, 0.03% BSA, 2 mM ß-mercaptoethanol) where total reaction volume was 25 μL in low-volume 96-well plates. Serially diluted compounds (3-fold) in DMSO (0.5% in final reaction) were incubated with cocktail of isocitrate (200 μM; Cat # I1252-1G, Sigma), NADP^+ (15 μM; Cat # N0505-500MG, Sigma) and buffer for 5 min, following addition of IDH1-WT enzyme (1 nM; Cat #71075-2, BPS Bioscience) and incubated in dark at room temperature for 30 min. After that, 12.5 μL detection solution containing Resazurin (60 μM; Cat #62758-13-8, Sigma) and Diaphorase (40 μg/ml; Cat # D2197-300UN, Sigma) in buffer was added and incubated for 15 min. Readings were taken using a Synergy Neo Plate reader (BioTek, Winooski) at single excitation of 540 nm and emission at 590 nm respectively.
The % (percent) activity of test samples was calculated as (Sample−Min)×100/(Max−Min). [Max: DMSO control, complete reaction with enzyme with DMSO and Min: No enzyme with DMSO]. Percent inhibition (100−% activity) was fitted to the “four-parameter logistic model” in XLfit for determination of IC50 values.

IDH2 mutant (R140Q) = target: T4, IDH2 mutant (R140Q) (Homo sapiens, UniProt P48735, R140Q); test: Mutant IDH2-R140Q Fluorescence Assay (Resazurin based); format: biochemical; details: 5 nM IDH2 R140Q, 4 hr pre-incubation, 1 mM α-ketoglutarate, 5 μM NADPH, 2 h
T4 construct: purchased BPS Bioscience 71100-2
T4 sequence (P48735 40-452 R140Q): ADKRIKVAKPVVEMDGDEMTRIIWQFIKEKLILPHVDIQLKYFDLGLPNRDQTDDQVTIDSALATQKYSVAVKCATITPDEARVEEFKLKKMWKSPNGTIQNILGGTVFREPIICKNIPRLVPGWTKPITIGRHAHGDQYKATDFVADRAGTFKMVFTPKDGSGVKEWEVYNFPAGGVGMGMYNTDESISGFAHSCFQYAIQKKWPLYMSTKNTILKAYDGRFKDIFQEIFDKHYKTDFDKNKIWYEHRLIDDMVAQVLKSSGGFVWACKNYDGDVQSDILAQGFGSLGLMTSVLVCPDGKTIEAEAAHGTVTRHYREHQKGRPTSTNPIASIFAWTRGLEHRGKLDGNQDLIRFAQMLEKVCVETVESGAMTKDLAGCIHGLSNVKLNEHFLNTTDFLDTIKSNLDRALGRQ
Experimental: IC50 values of compounds against IDH2 mutant (R140Q) were determined by Resazurin based Fluorescence assay. Assay was performed in Buffer (25 mM Tris HCl, 150 mM NaCl, 10 mM MgCl2, 0.03% BSA, 2 mM 1-mercaptoethanol) where total reaction volume was 12.5 μL in low-volume 384-well plates (Cat #4511, Corning). Serially diluted compounds (3-fold) were pre-incubated with IDH2 R140Q mutant enzyme (5 nM; Cat #71100-2, BPS Bioscience) for 4 hr at RT (25° C.) followed by addition of cocktail of α-ketoglutarate (1 mM; Cat #75892-25G, Sigma), and NADPH (5 μM; Cat # N1630-100MG, Sigma) with buffer in dark at room temperature for 2 h. After 2 h incubation, 6.25 μL detection solution containing Resazurin (30 μM; (Cat #62758-13-8, Sigma) and Diaphorase (40 ug/ml; Cat # D2197-300UN, Sigma) in buffer was added and incubated for 15 min. Readings were taken in a Synergy Neo Plate reader (BioTek, Winooski) at single excitation of 540 nm and emission at 590 nm respectively.
as §1

T1 sequence (O75874 whole entry R132H): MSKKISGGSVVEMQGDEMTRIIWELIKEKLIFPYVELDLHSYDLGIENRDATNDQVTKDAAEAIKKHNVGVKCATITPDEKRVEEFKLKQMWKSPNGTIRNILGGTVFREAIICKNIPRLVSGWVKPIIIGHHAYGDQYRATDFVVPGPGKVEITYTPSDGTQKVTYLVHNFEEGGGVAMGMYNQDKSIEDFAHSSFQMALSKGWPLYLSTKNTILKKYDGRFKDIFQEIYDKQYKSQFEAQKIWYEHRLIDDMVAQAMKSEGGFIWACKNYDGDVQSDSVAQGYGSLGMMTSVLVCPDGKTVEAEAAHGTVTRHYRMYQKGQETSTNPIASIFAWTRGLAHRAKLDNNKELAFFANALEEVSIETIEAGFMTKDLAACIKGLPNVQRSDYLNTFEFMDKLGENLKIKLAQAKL
T2 sequence (O75874 2-414 R132C limits assumed): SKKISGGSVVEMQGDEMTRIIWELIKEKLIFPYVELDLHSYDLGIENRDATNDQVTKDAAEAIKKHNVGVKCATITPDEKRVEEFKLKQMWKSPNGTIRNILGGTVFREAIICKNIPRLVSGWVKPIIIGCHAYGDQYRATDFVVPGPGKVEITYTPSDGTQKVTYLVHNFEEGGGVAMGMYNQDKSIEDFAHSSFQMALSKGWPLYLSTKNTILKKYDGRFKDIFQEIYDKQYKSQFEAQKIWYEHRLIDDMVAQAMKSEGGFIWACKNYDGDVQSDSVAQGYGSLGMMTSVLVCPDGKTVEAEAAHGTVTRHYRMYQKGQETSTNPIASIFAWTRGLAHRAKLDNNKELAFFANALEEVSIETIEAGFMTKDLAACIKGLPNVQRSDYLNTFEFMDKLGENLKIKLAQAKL
T3 sequence (O75874 whole entry): as the sequence (O75874 whole entry R132H) above, with H132R counted along it

pIC50 (IDH1 mutant (R132H)) | pIC50 [1] | pIC50 (IDH1-WT) | pIC50 (IDH2 mutant (R140Q)) | SMILES
6.68 | 6.77 | < 4.30 | < 4.30 | CC[C@H]1COC(=O)N1c1nc(C)nc(N[C@@H](C)c2ccc(Oc3ccccc3)cc2)n1 [Compound 1.44, (S)-4-ethyl-3-(4-methyl-6-((S)-1-(4-phenoxyphenyl)ethylamino)-1,3,5-triazin-2-yl)oxazolidin-2-one]
6.75 | 6.57 | < 4.30 | < 4.30 | Cc1nc(N[C@@H](C)c2cc3cc(Cl)ccc3[nH]c2=O)nc(N2C(=O)OC[C@@H]2[C@H](C)F)n1 [Compound 1.59, (R)-3-(4-((S)-1-(6-chloro-2-oxo-1,2-dihydroquinolin-3-yl)ethylamino)-6-methyl-1,3,5-triazin-2-yl)-4-((S)-1-fluoroethyl) oxazolidin-2-one]
6.47 | – | < 4.30 | < 4.30 | CC[C@H]1COC(=O)N1c1nc(C)nc(N[C@@H](C)c2ccc(Oc3ccc(C)cc3)cc2)n1 [Compound 1.83, (S)-4-ethyl-3-(4-methyl-6-((S)-1-(4-(p-tolyloxy)phenyl)ethylamino)-1,3,5-triazin-2-yl)oxazolidin-2-one]
6.04 | – | < 4.30 | < 4.30 | CC[C@H]1COC(=O)N1c1nc(C)nc(N[C@@H](C)c2ccc3ccn(-c4ccccc4)c3c2)n1 [Compound 1.85, (S)-4-ethyl-3-(4-methyl-6-((S)-1-(1-phenyl-1H-indol-6-yl)ethylamino)-1,3,5-triazin-2-yl)oxazolidin-2-one]
6.13 | – | < 4.30 | < 4.30 | CC[C@H]1COC(=O)N1c1nc(C)nc(N[C@@H](C)c2ccc(Sc3ccc(F)cc3)cc2)n1 [Compound 1.92, (S)-4-ethyl-3-(4-((S)-1-(4-(4-fluorophenylthio)phenyl)ethylamino)-6-methyl-1,3,5-triazin-2-yl)oxazolidin-2-one]
6.28 | – | < 4.30 | < 4.30 | CC[C@H]1COC(=O)N1c1nc(C)nc(N[C@@H](C)c2ccc(Oc3ccc4ccccc4c3)cc2)n1 [Compound 1.94, (S)-4-ethyl-3-(4-methyl-6-((S)-1-(4-(naphthalen-2-yloxy)phenyl)ethylamino)-1,3,5-triazin-2-yl)oxazolidin-2-one]
6.18 | – | < 4.30 | < 4.30 | CC[C@H]1COC(=O)N1c1nc(C)nc(N[C@H](C)c2cc3cc(Cl)c(OC(C)C)cc3[nH]c2=O)n1 [Compound 1.105, (S)-3-(4-((R)-1-(6-chloro-7-isopropoxy-2-oxo-1,2-dihydroquinolin-3-yl)ethylamino)-6-methyl-1,3,5-triazin-2-yl)-4-ethyloxazolidin-2-one]

Continued, compound first:

SMILES | pIC50 (IDH1 mutant (R132H)) | pIC50 [1] | pIC50 (IDH1-WT) | pIC50 (IDH2 mutant (R140Q))
CC[C@H]1COC(=O)N1c1nc(C)nc(N[C@@H](C)c2cc3cc(Cl)ccc3[nH]c2=O)n1 [Compound 1.38, (S)-3-(4-((S)-1-(6-chloro-2-oxo-1,2-dihydroquinolin-3-yl)ethylamino)-6-methyl-1,3,5-triazin-2-yl)-4-ethyloxazolidin-2-one] | 6.84 | 6.20 | < 4.30 | < 4.30
CC[C@H]1COC(=O)N1c1nc(C)nc(N[C@@H](C)c2cc3cc(Cl)c(OC)cc3[nH]c2=O)n1 [Compound 1.42, (S)-3-(4-((S)-1-(6-chloro-7-methoxy-2-oxo-1,2-dihydroquinolin-3-yl)ethylamino)-6-methyl-1,3,5-triazin-2-yl)-4-ethyloxazolidin-2-one] | 7.08 | 6.25 | < 4.30 | < 4.30
CC[C@H]1COC(=O)N1c1nc(C)nc(N[C@@H](C)c2cn(-c3ccc(Cl)cc3)cn2)n1 [Compound 1.50, (S)-3-(4-((S)-1-(1-(4-chlorophenyl)-1H-imidazol-4-yl)ethylamino)-6-methyl-1,3,5-triazin-2-yl)-4-ethyloxazolidin-2-one] | 6.34 | 6.38 | < 4.30 | < 4.30
Cc1nc(N[C@@H](C)c2ccc(Oc3ccccc3)cc2)nc(N2C(=O)OC[C@@H]2[C@H](C)F)n1 [Compound 1.64, (R)-4-((S)-1-fluoroethyl)-3-(4-methyl-6-((S)-1-(4-phenoxyphenyl)ethylamino)-1,3,5-triazin-2-yl)oxazolidin-2-one] | 6.64 | 7.44 | < 4.30 | < 4.30
CC[C@H]1COC(=O)N1c1nc(C)nc(N[C@@H](C)c2ccc(Oc3ccccc3)c(F)c2)n1 [Compound 1.84, (S)-4-ethyl-3-(4-((S)-1-(3-fluoro-4-phenoxyphenyl)ethylamino)-6-methyl-1,3,5-triazin-2-yl)oxazolidin-2-one] | 6.21 | – | < 4.30 | < 4.30
CC[C@H]1COC(=O)N1c1nc(C)nc(N[C@@H](C)c2ccc(Oc3ccccc3)c(C)c2)n1 [Compound 1.86, (S)-4-ethyl-3-(4-methyl-6-((S)-1-(3-methyl-4-phenoxyphenyl)ethylamino)-1,3,5-triazin-2-yl)oxazolidin-2-one] | 6.56 | – | < 4.30 | < 4.30
CC[C@H]1COC(=O)N1c1nc(C)nc(N[C@@H](C)c2cc3cc(Cl)c(OC(C)C)cc3[nH]c2=O)n1 [Compound 1.104, (S)-3-(4-((S)-1-(6-chloro-7-isopropoxy-2-oxo-1,2-dihydroquinolin-3-yl)ethylamino)-6-methyl-1,3,5-triazin-2-yl)-4-ethyloxazolidin-2-one] | 7.12 | 7.03 | < 4.30 | < 4.30
